Patent US7951827B2, “Synthesis and antiprotozoal activity of dicationic 3,5-diphenylisoxazoles” (The University of North Carolina at Chapel Hill, priority 2005, dated 2011)
Counter-ions that a name gives are not always drawn. Like-named read-outs stand apart in the source and are kept apart here.

Legend:
[1] = tested on: Plasmodium falciparum; experiment: In vitro antiprotozoal activity against Plasmodium falciparum; assay type: cell-based
Description: (§1) In vitro antiprotozoal activities, see Ismail, M. A., et al., J. Med. Chem. 46, 4761-4769 (2003), and cytotoxicity were measured following established protocols, see Balz, T., et al., EMBO J., 4, 1273-1277 (1985); Räz. B., et al., Acta Trop., 68:139-147 (1997); and Sperandeo, N. R. et al., Chem. Biochem., 4, 69-73 (2003). […] Other positive controls employed were melarsoprol (against T. brucei), chloroquine, and artemisinin (against P. falciparum), and podophyllotoxin (against VERO cells).

[2] = Cytotoxicity to VERO cells; assay type: cell-based, African green monkey (Cercopithecus Aethiops); conditions: African green monkey (Cercopithecus aethiops), IC50 (μM) Cytotoxicity VERO cells
Description: as §1

[3] = tested on: Trypanosoma brucei brucei; experiment: In vitro antiprotozoal activity against Trypanosoma brucei brucei; assay type: cell-based
Description: as §1

[4] = tested on: VERO cells; experiment: Cytotoxicity to VERO cells; assay type: cell-based, African green monkey (Cercopithecus Aethiops)
Description: as §1

[5] = Plasmodium falciparum, Table 1, read-out: IC50 (μM) Plasmodium falciparum
[6] = Trypanosoma brucei, Table 1, read-out: IC50 (μM) Trypanosoma brucei brucei
[7] = Trypanosoma brucei, read-out: IC50 values against T. brucei brucei
[8] = Table 1, read-out: IC50 (μM) Trypanosoma brucei brucei
[9] = Table 1, read-out: IC50 (μM) Plasmodium falciparum
[10] = Plasmodium falciparum, read-out: antiplasmodial IC50 values (P. falciparum)

| SMILES | melting point | IC50 [1, 5] [µM] | IC50 [2] [µM] | IC50 [3, 6] [µM] | IC50 [1, 10] [µM] | further results |
| --- | --- | --- | --- | --- | --- | --- |
| N=C(N)c1ccc(-c2cc(-c3ccccc3)on2)cc1 (as salt: hydrochloride) [Compound 2, 3-(4-Amidinophenyl)-5-phenylisoxazole] | 287 to 292 °C | – | – | – | – | – |
| C[C@@H]1CC[C@H]2[C@@H](C)C(=O)O[C@@H]3O[C@@]4(C)CC[C@@H]1[C@]32OO4 [Artemisinin, reference compound] | – | 0.0067 | – | – | – | – |
| CCN(CC)CCCC(C)Nc1ccnc2cc(Cl)ccc12 (stereo not shown) [Chloroquine, reference compound] | – | – | – | – | – | IC50 ([1]; Plasmodium falciparum, read-out: IC50 (μM) Plasmodium falciparum): 0.104 µM |
| Cl.N=C(N)c1ccc(-c2cc(-c3ccccc3)no2)cc1 [Compound 1, 5-(4-Amidinophenyl)-3-phenylisoxazole hydrochloride] | 262 to 265 °C | 3.3 | 19.1 | 1.72 | – | – |
| N=C(N)c1ccc(-c2cc(-c3ccccc3)on2)cc1 [Compound 2, 3-(4-Amidinophenyl)-5-phenylisoxazole] | – | 3.3 | 18.5 | 1.12 | – | – |
| N=C(N)c1ccc(-c2cc(-c3ccc(C(=N)N)cc3)on2)cc1 [Compound 3, 3,5-Bis(4-amidinophenyl)isoxazole dihydrochloride] | – | 0.0226 | 2.13 | 0.0051 | – | IC50 [3, 7]: 0.0035 to 0.009 µM; IC50 ([3]; dihydrochloride, read-out: IC50 values against T. brucei brucei): 0.0051 µM |
| c1cc(-c2cc(-c3ccc(C4=NCCN4)cc3)on2)ccc1C1=NCCN1 [Compound 5, 3,5-Bis[4-(2-imidazolinyl)phenyl]isoxazole dihydrochloride] | – | – | – | – | – | IC50 [4]: 1.81 µM; IC50 [3, 8]: 0.0872 µM; IC50 [1, 9]: 0.0041 µM |
| Cl.Cl.N=C(N)c1ccc(-c2cc(-c3ccc(C(=N)N)cc3[N+](=O)[O-])on2)cc1 [Compound 6, 5-(4-Amidino-2-nitrophenyl)-3-(4-amidinophenyl)isoxazole dihydrochloride] | > 350 °C (dec.) | 0.0149 | 15.8 | 0.0139 | 0.008 to 0.03 | – |
| Cl.Cl.N=C(N)c1ccc(-c2cc(-c3ccc(C(=N)N)cc3Cl)on2)cc1 [Compound 7, 5-(4-Amidino-2-chlorophenyl)-3-(4-amidinophenyl)isoxazole dihydrochloride] | > 350 °C (dec.) | 0.0079 | 41 | 0.0155 | < 0.008 | – |
| Cl.Cl.N=C(N)c1ccc(-c2cc(-c3ccc(C(=N)N)cc3[N+](=O)[O-])no2)cc1 [Compound 9, 3-(4-Amidino-2-nitrophenyl)-5-(4-amidinophenyl)isoxazole dihydrochloride] | 350 °C (dec.) | 0.0401 | 22.2 | 0.0324 | – | – |
| N=C(N)c1ccc(-c2cc(-c3ccc(C(=N)N)cc3Cl)no2)cc1 [Compound 10, 3-(4-Amidino-2-chlorophenyl)-5-(4-amidinophenyl)isoxazole dihydrochloride] | – | 0.0555 | 5.69 | 0.0232 | – | – |
| N=C(N)c1ccc(-c2cc(-c3cccc(C(=N)N)c3)no2)cc1 [Compound 13, 3-(3-Amidinophenyl)-5-(4-amidinophenyl)isoxazole dihydrochloride] | – | 0.0578 | 24.1 | 0.0063 | 0.0578 | IC50 [3, 7]: 0.0035 to 0.009 µM |
| c1cc(C2=NCCN2)cc(-c2cc(-c3ccc(C4=NCCN4)cc3)on2)c1 [Compound 15, 3-[3-(2-Imidazolinyl)phenyl]-5-[4-(2-imidazolinyl)phenyl]isoxazole dihydrochloride] | – | – | – | – | – | IC50 ([4]; Table 1, read-out: IC50 (μM) Cytotoxicity VERO cells): 65 µM; IC50 [3, 8]: 1.55 µM; IC50 [1, 9]: 0.0512 µM |
| Cl.Cl.N=C(N)c1cccc(-c2cc(-c3ccc(C(=N)N)cc3[N+](=O)[O-])on2)c1 [Compound 16, 5-(4-Amidino-2-nitrophenyl)-3-(3-amidinophenyl)isoxazole dihydrochloride] | 225 °C | 0.0259 | 48 | 0.009 | 0.008 to 0.03 | IC50 [3, 7]: 0.0035 to 0.009 µM |
| Cl.Cl.N=C(N)c1cccc(-c2cc(-c3ccc(C(=N)N)cc3Cl)on2)c1 [Compound 17, 5-(4-Amidino-2-chlorophenyl)-3-(3-amidinophenyl)isoxazole dihydrochloride] | 242 to 245 °C | 0.0187 | 82.7 | 0.0063 | 0.008 to 0.03 | IC50 [3, 7]: 0.0035 to 0.009 µM |
